System: Human peripheral blood mononuclear cell (PBMC) cultures
Assay: CD69 and CD25 expression in human PBMC cultures, direct effects
Type: cell-based
Conditions: direct effect, 24 hours, vs untreated control; extract at the highest dose
Experimental: Next, the immune-modulating effects of the extract were tested. Human peripheral blood mononuclear cell (PBMC) cultures were used for this testing. A set of cultures were left untreated as negative control cultures for immune activation. Triplicate sets of cultures were treated with serial dilutions of the test product. The inflammatory bacterial lipopolysaccharide LPS from E. coli was used as a positive control for activation. The cultures were incubated for 24 hours, after which the cells and the culture supernatants were harvested and used to monitor the reactions in each culture. The cells were used for immunostaining and flow cytometry, specifically to evaluate the induction of two activation markers, CD69 and CD25, on NK cells, NKT cells, T lymphocytes, and monocytes/macrophages.

Poly I:C
CD69 expression on NK cells: increase

— patent US20230084354A1, “NUTRACEUTICAL EXTRACTS OF HIPPOPHAE RHAMNOIDES AND TERMINALIA CHEBULA AND USES THEREOF” (Biomics, LLC, priority 2020, published 2023)
